In patent US20250129430A1, “HIGH ATP-AFFINITY PROTEIN AS THERAPEUTIC TARGET FOR INTRACTABLE CANCER MOLECULAR SUBTYPES AND INHIBITOR THEREOF” (VeraVerse Co., Ltd., priority 2021, published 2025):
Where a name gives a salt, the structure may show the parent alone.

Columns and labels:
Type in all cases: cell-based, human
NCC19 = experiment: Cell viability drug screen, 12-point dose-response AUC; conditions: NCC19 cells, 72 hours
Summary of the method: (§1)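 Gastric cancer lines seeded 5×10^3 cells/well, dosed after 24 h with half-log 12-point compound dilutions (DMSO 0.5% control), then 72 h at 37 °C. Viability by luminescence, normalized to DMSO; AUC by trapezoidal method, averaged over repeats.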

SNU638 = experiment: as above; conditions: SNU638 cells, 72 hours
Summary of the method: as §1

SK4 = experiment: as above; conditions: 72 hours; for Average Area Under the Viability Curve (AUC), AUC norm value: SK4 cells (SEM subtype)
Summary of the method: as §1

MKN74 = experiment: as above; conditions: MKN74 cells, 72 hours
Summary of the method: (§2)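 Each cell line receives a twelve-point half-log titration of drug beginning 24 h after plating 5×10^3 cells per well. Following 72 h culture at 37 °C, luminescent signal is recorded and expressed versus vehicle. AUC is derived by the trapezoidal method.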

SNU16 = experiment: as above; conditions: SNU16 cells, 72 hours
Summary of the method: as §1

KATO3 = experiment: as above; conditions: KATO3 cells, 72 hours
Summary of the method: as §1

SNU216 = experiment: as above; conditions: 72 hours; for Average Area Under the Viability Curve (AUC), AUC norm value: SNU216 cells (non-SEM subtype)
Summary of the method: as §2

NCC24 = experiment: as above; conditions: NCC24 cells, 72 hours
Summary of the method: as §1

NCC59 = experiment: as above; conditions: NCC59 cells, 72 hours
Summary of the method: as §1

SNU1967 = experiment: as above; conditions: SNU1967 cells, 72 hours
Summary of the method: as §1

YCC3 = experiment: as above; conditions: YCC3 cells, 72 hours
Summary of the method: as §1

SNU620 = experiment: as above; conditions: SNU620 cells, 72 hours
Summary of the method: as §1

SNU484 = experiment: as above; conditions: 72 hours; for Average Area Under the Viability Curve (AUC), AUC norm value: SNU484 cells (SEM subtype)
Summary of the method: as §1

AGS = experiment: as above; conditions: 72 hours; for Average Area Under the Viability Curve (AUC), AUC norm value: AGS cells (non-SEM subtype)
Summary of the method: as §2

MKN45 = experiment: as above; conditions: 72 hours; for Average Area Under the Viability Curve (AUC), AUC norm value: MKN45 cells (non-SEM subtype)
Summary of the method: as §2

SNU1750 = experiment: as above; conditions: 72 hours; for Average Area Under the Viability Curve (AUC), AUC norm value: SNU1750 cells (SEM subtype)
Summary of the method: as §1

SNU601 = experiment: as above; conditions: SNU601 cells, 72 hours
Summary of the method: as §1

MKN1 = experiment: as above; conditions: MKN1 cells, 72 hours
Summary of the method: as §1

NCI_N87 = experiment: as above; conditions: NCI_N87 cells, 72 hours
Summary of the method: as §1

NCC20 = experiment: as above; conditions: NCC20 cells, 72 hours
Summary of the method: as §1

MKN28 = experiment: as above; conditions: MKN28 cells, 72 hours
Summary of the method: as §1

SNU719 = experiment: as above; conditions: SNU719 cells, 72 hours
Summary of the method: as §2

YCC2 = experiment: as above; conditions: YCC2 cells, 72 hours
Summary of the method: as §1

OCUM1 = experiment: as above; conditions: OCUM1 cells, 72 hours
Summary of the method: as §1

YCC11 = experiment: as above; conditions: 72 hours; for Average Area Under the Viability Curve (AUC), AUC norm value: YCC11 cells (SEM subtype)
Summary of the method: as §1

SNU1 = experiment: as above; conditions: SNU1 cells, 72 hours
Summary of the method: as §1

SNU668 = experiment: as above; conditions: 72 hours; for Average Area Under the Viability Curve (AUC), AUC norm value: SNU668 cells (SEM subtype)
Summary of the method: as §1

Hs746T = experiment: as above; conditions: 72 hours; for Average Area Under the Viability Curve (AUC), AUC norm value: Hs746T cells (SEM subtype)
Summary of the method: as §1

[1] = test system: non-SEM-type gastric cancer cell line; experiment: Cell viability drug screen, AUC summary over non-SEM-type lines; conditions: in the non-SEM-type gastric cancer cell line
FU97 = experiment: Cell viability drug screen, 12-point dose-response AUC; set-up: Average Area Under the Viability Curve (AUC), AUC norm value: scale not given here; conditions: FU97 cells, 72 hours
Summary of the method: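 Trapezoidal AUC of a 12-point, DMSO-normalized dose-response curve. Luminescent viability was measured after 72 h of exposure at 37° C to half-log serial dilutions (0.5% DMSO control), dosed 24 h after plating FU97 cells at 5×10^3 per well.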

COC(=O)Nc1nc2ccc(Sc3ccccc3)cc2[nH]1 [Fenbendazole]
area under the viability curve (AUC), normalized (NCC19; 12-point dose-response): −0.2779 | area under the viability curve (AUC), normalized (SNU638; 12-point dose-response): −0.3689 | area under the viability curve (AUC), normalized (SK4; SK4 cells, 12-point dose-response): −0.2953 | area under the viability curve (AUC), normalized (MKN74; 12-point dose-response): −0.2802 | area under the viability curve (AUC), normalized (SNU16; 12-point dose-response): 1.2297 | area under the viability curve (AUC), normalized (KATO3; 12-point dose-response): 2.344 | area under the viability curve (AUC), normalized (SNU216; SNU216 cells, 12-point dose-response): 1.005 | area under the viability curve (AUC), normalized (NCC24; 12-point dose-response): −0.8488 | area under the viability curve (AUC), normalized (NCC59; 12-point dose-response): 1.9513 | area under the viability curve (AUC), normalized (SNU1967; 12-point dose-response): 0.184 | area under the viability curve (AUC), normalized (YCC3; 12-point dose-response): 1.376 | area under the viability curve (AUC), normalized (SNU620; 12-point dose-response): −1.425 | area under the viability curve (AUC), normalized (SNU484; SNU484 cells, 12-point dose-response): −0.08111 | area under the viability curve (AUC), normalized (AGS; AGS cells, 12-point dose-response): −1.16 | area under the viability curve (AUC), normalized (MKN45; MKN45 cells, 12-point dose-response): 1.407 | area under the viability curve (AUC), normalized (SNU1750; SNU1750 cells, 12-point dose-response): 0.2596 | area under the viability curve (AUC), normalized (SNU601; 12-point dose-response): 0.599 | area under the viability curve (AUC), normalized (MKN1; 12-point dose-response): −0.0568 | area under the viability curve (AUC), normalized (NCI_N87; 12-point dose-response): −1.124 | area under the viability curve (AUC), normalized (NCC20; 12-point dose-response): −0.5211 | area under the viability curve (AUC), normalized (MKN28; 12-point dose-response): −0.7877 | area under the viability curve (AUC), normalized (SNU719; 12-point dose-response): 3.382 | area under the viability curve (AUC), normalized (YCC2; 12-point dose-response): 0.5695 | area under the viability curve (AUC), normalized (OCUM1; 12-point dose-response): 1.283 | area under the viability curve (AUC), normalized (YCC11; YCC11 cells, 12-point dose-response): −0.7305 | area under the viability curve (AUC), normalized (SNU1; 12-point dose-response): 0.1629 | area under the viability curve (AUC), normalized (SNU668; SNU668 cells, 12-point dose-response): 0 | area under the viability curve (AUC), normalized (Hs746T; Hs746T cells, 12-point dose-response): 0.5728 | AUC value [1]: high | area under the viability curve (AUC), normalized (FU97; 12-point dose-response): −1.854

c1ccc2c(-c3cnn4cc(-c5ccc(N6CCNCC6)cc5)cnc34)ccnc2c1 [LDN193189]
Average Area Under the Viability Curve (AUC), AUC norm value (NCC19): 0.06094 | Average Area Under the Viability Curve (AUC), AUC norm value (SNU638): −0.9699 | Average Area Under the Viability Curve (AUC), AUC norm value (SK4): −0.5339 | Average Area Under the Viability Curve (AUC), AUC norm value (MKN74): −1.246 | Average Area Under the Viability Curve (AUC), AUC norm value (SNU16): 1.525 | Average Area Under the Viability Curve (AUC), AUC norm value (KATO3): 0.6205 | Average Area Under the Viability Curve (AUC), AUC norm value (SNU216): −0.7838 | Average Area Under the Viability Curve (AUC), AUC norm value (NCC24): −0.1464 | Average Area Under the Viability Curve (AUC), AUC norm value (NCC59): 1.892 | Average Area Under the Viability Curve (AUC), AUC norm value (SNU1967): −1.419 | Average Area Under the Viability Curve (AUC), AUC norm value (YCC3): 0.08342 | Average Area Under the Viability Curve (AUC), AUC norm value (SNU620): −2.131 | Average Area Under the Viability Curve (AUC), AUC norm value (SNU484): −0.5999 | Average Area Under the Viability Curve (AUC), AUC norm value (AGS): −0.1896 | Average Area Under the Viability Curve (AUC), AUC norm value (MKN45): 0.9516 | Average Area Under the Viability Curve (AUC), AUC norm value (SNU1750): −0.4695 | Average Area Under the Viability Curve (AUC), AUC norm value (SNU601): 3.699 | Average Area Under the Viability Curve (AUC), AUC norm value (MKN1): 0 | Average Area Under the Viability Curve (AUC), AUC norm value (NCI_N87): 1.172 | Average Area Under the Viability Curve (AUC), AUC norm value (NCC20): 0.02059 | Average Area Under the Viability Curve (AUC), AUC norm value (MKN28): 0.5758 | Average Area Under the Viability Curve (AUC), AUC norm value (SNU719): 0.6043 | Average Area Under the Viability Curve (AUC), AUC norm value (YCC2): 0.1163 | Average Area Under the Viability Curve (AUC), AUC norm value (OCUM1): −1.113 | Average Area Under the Viability Curve (AUC), AUC norm value (YCC11): −0.7359 | Average Area Under the Viability Curve (AUC), AUC norm value (SNU1): 0.8706 | Average Area Under the Viability Curve (AUC), AUC norm value (SNU668): 0.06394 | Average Area Under the Viability Curve (AUC), AUC norm value (Hs746T): −0.2954 | AUC value [1]: high | Average Area Under the Viability Curve (AUC), AUC norm value (FU97): −0.1434

COC1=CC(c2cc3ccccc3[nH]2)=N/C1=C\c1[nH]c(C)cc1C [Obatoclax mesylate (GX15-070), Obatoclax mesylate]
Average Area Under the Viability Curve (AUC), AUC norm value (NCC19): 1.604 | Average Area Under the Viability Curve (AUC), AUC norm value (SNU638): −0.5094 | Average Area Under the Viability Curve (AUC), AUC norm value (SK4): −1.531 | Average Area Under the Viability Curve (AUC), AUC norm value (MKN74): −1.051 | Average Area Under the Viability Curve (AUC), AUC norm value (SNU16): 1.841 | Average Area Under the Viability Curve (AUC), AUC norm value (KATO3): 1.383 | Average Area Under the Viability Curve (AUC), AUC norm value (SNU216): −0.1398 | Average Area Under the Viability Curve (AUC), AUC norm value (NCC24): 0.2511 | Average Area Under the Viability Curve (AUC), AUC norm value (NCC59): 2.5912 | Average Area Under the Viability Curve (AUC), AUC norm value (SNU1967): −0.4093 | Average Area Under the Viability Curve (AUC), AUC norm value (YCC3): 2.281 | Average Area Under the Viability Curve (AUC), AUC norm value (SNU620): 0.8129 | Average Area Under the Viability Curve (AUC), AUC norm value (SNU484): −1.4 | Average Area Under the Viability Curve (AUC), AUC norm value (AGS): −0.9005 | Average Area Under the Viability Curve (AUC), AUC norm value (MKN45): 0.9313 | Average Area Under the Viability Curve (AUC), AUC norm value (SNU1750): −0.872 | Average Area Under the Viability Curve (AUC), AUC norm value (SNU601): 2.791 | Average Area Under the Viability Curve (AUC), AUC norm value (MKN1): 0.7857 | Average Area Under the Viability Curve (AUC), AUC norm value (NCI_N87): 0.636 | Average Area Under the Viability Curve (AUC), AUC norm value (NCC20): −0.9868 | Average Area Under the Viability Curve (AUC), AUC norm value (MKN28): −0.3769 | Average Area Under the Viability Curve (AUC), AUC norm value (SNU719): 2.585 | Average Area Under the Viability Curve (AUC), AUC norm value (YCC2): −0.5916 | Average Area Under the Viability Curve (AUC), AUC norm value (OCUM1): 0.1302 | Average Area Under the Viability Curve (AUC), AUC norm value (YCC11): −0.8407 | Average Area Under the Viability Curve (AUC), AUC norm value (SNU1): 0.5238 | Average Area Under the Viability Curve (AUC), AUC norm value (SNU668): −0.2715 | Average Area Under the Viability Curve (AUC), AUC norm value (Hs746T): 0 | AUC value [1]: high | Average Area Under the Viability Curve (AUC), AUC norm value (FU97): −1.5029
